According to ChEMBL document CHEMBL1201862, “PubChem BioAssay data set” (2004):
Activity calls are given as the source filed them.

Legend:
[1] = biological target: 5-hydroxytryptamine receptor 1A (Homo sapiens, UniProt P08908); type: functional
Bcl-2-related protein A1 [2] = biological target: T1, Bcl-2-related protein A1 (Mus musculus, UniProt Q07440); test: Bfl-1 binding inhibitors, SAR follow-up, biochemical, fluorescence polarization (AID 1070)
T1 sequence (Q07440 whole entry): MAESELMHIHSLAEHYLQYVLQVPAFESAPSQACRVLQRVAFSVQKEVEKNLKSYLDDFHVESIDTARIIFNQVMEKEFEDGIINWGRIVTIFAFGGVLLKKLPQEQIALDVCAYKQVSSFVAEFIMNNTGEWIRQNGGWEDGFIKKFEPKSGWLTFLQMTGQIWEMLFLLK

Bcl-2-related protein A1 [3] = biological target: T1, Bcl-2-related protein A1; test: Bfl-1 inhibitors blocking BH3 peptide binding, confirmation, biochemical, TR-FRET, mouse Bfl-1 (AID 621);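 note: TR-FRET binding of GST-Bfl-1 to FITC-labelled Bid peptide via terbium antibody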
[4] = biological target: T2, Heat shock factor protein 1 (Mus musculus, UniProt P38532); test: HSF1 potentiators in luciferase reporter cells, confirmation, cell-based, NIH3T3, luminescence, dose retest (AID 435004); type: functional;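 note: stress induced by proteasome inhibitor MG132 added 30 min after compound; luciferase reporter driven by HSF1 response element in NIH3T3 cells; actives raise luminescence as potentiators of the MG132 stress response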
T2 sequence (P38532 whole entry): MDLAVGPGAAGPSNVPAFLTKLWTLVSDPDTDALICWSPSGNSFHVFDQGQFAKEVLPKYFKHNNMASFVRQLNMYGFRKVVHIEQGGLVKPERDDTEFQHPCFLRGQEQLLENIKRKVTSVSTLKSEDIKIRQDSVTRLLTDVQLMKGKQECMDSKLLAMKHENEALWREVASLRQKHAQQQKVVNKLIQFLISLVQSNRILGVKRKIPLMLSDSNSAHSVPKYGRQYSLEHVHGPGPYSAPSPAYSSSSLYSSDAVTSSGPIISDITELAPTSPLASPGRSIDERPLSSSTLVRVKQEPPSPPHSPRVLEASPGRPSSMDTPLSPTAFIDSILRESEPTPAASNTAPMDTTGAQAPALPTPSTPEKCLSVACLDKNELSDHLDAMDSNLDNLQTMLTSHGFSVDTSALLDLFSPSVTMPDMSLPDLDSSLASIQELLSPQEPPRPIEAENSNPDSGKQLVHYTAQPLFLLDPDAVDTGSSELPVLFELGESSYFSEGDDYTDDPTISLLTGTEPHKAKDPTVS

BJ [5] = test: cells; type: functional, cell-based; details: Homo sapiens
BJ [6] = test: cytotoxicity toward BJ-TERT-LT-ST fibroblasts, dose response, cell-based, RAS-independent, luminescence (AID 1935); type: functional; details: Homo sapiens;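 note: BJ fibroblasts immortalized with TERT plus LT and ST oncogenes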
[7] = Fluorescence-based cell-based high throughput dose response assay for inhibitors of the interaction of nucleotide-binding oligomerization domain containing 2 (NOD2) and the receptor-interacting serine-threonine kinase 2 (RIPK2).; type: functional; details: Homo sapiens
[8] = cytotoxicity toward DRD oncogenic fibroblasts, dose response, cell-based, non-viral oncogenic, luminescence (AID 1934); type: functional; details: Homo sapiens
BJ [9] = test: cytotoxicity toward Ras-transformed BJeLR fibroblasts, dose response, cell-based, alamar blue fluorescence, cherrypicked samples (AID 2631); type: functional; details: Homo sapiens;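 note: confirmatory dose-response assay in RAS-dependent BJ fibroblasts engineered with TERT, LT and ST, with cytotoxicity read by fluorescence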
BJ [10] = test: cytotoxicity toward BJ-TERT fibroblasts, dose response, cell-based, RAS-independent, luminescence (AID 1933); type: functional; details: Homo sapiens
Galanin receptor type 2 = Galanin receptor type 2 (Homo sapiens, UniProt O43603); test: Dose Response cell-based high-throughput screening assay to identify antagonists of galanin receptor 2 (GALR2). [Related pubchem assays: 828, 866 ]; type: functional
Sequence of Galanin receptor type 2 (O43603 whole entry): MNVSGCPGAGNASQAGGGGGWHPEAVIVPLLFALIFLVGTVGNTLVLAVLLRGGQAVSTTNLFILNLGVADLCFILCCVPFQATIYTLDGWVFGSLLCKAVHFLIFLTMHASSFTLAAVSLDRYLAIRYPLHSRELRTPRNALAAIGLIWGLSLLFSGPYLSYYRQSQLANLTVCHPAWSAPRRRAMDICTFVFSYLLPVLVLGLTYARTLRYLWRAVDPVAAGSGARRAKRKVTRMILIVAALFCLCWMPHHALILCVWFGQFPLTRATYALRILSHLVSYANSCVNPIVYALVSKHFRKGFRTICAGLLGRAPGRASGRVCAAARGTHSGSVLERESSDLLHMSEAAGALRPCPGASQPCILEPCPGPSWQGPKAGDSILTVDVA

[11] = HEp-2 cell cytotoxicity, dose response, cytotoxicity control for RSV inhibitor project, HTS (AID 2410); type: functional; details: human respiratory syncytial virus
[12] = Luminescence Cell-Based Dose Retest to Confirm Inhibitors of Cancer Stem Cells. [Related pubchem assays (depositor defined):AID2717, AID2721]; type: functional; details: Homo sapiens
[13] = microbe, parasite or virus in culture; type: functional; details: Mycobacterium tuberculosis
[14] = biological target: Voltage-gated inwardly rectifying potassium channel KCNH2 (Homo sapiens, UniProt Q12809); test: hERG protection from proarrhythmic block, potency, dose response, cell-based, thallium flux (AID 2121); type: ADME
Sequence of Voltage-gated inwardly rectifying potassium channel KCNH2 (Q12809 whole entry): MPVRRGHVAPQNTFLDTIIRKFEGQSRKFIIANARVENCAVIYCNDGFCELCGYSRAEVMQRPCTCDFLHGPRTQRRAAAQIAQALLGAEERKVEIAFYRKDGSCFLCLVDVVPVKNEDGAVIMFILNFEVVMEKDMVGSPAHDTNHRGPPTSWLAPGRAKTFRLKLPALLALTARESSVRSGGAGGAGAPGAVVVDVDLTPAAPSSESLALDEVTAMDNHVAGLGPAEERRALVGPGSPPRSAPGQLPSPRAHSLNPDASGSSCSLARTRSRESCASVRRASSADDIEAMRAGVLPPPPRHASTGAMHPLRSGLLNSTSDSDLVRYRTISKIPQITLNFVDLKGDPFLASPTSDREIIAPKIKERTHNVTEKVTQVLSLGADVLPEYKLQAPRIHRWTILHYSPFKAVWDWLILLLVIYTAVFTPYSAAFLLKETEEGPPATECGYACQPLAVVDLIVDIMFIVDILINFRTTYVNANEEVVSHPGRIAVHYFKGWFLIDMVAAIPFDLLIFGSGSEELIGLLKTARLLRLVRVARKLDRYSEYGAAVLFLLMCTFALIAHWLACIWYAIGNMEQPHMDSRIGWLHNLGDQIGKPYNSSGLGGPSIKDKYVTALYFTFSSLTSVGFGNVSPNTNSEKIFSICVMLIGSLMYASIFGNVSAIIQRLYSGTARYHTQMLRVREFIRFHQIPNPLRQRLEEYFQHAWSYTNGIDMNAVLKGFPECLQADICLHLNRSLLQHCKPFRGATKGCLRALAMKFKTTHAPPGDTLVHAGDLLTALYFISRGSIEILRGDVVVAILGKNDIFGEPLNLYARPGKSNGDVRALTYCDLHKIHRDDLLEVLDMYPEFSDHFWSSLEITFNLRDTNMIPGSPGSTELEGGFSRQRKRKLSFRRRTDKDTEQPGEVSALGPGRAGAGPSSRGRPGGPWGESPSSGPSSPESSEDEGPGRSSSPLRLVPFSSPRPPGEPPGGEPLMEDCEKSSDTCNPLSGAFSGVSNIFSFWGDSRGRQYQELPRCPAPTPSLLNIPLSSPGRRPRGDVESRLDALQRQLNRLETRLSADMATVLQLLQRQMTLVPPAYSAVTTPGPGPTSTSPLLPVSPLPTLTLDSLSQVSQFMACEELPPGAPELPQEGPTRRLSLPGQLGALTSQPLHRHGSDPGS

[15] = biological target: Lytic switch protein BZLF1 (Epstein-Barr virus (strain B95-8) (HHV-4) (Human herpesvirus 4), UniProt P03206); test: EBV ZTA inhibitors, dose response, counter-screen for EBNA-1 inhibitor project, biochemical, fluorescence polarization, Epstein-Barr virus, 1536-well (AID 2377); set-up: species or system human gammaherpesvirus 4;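 note: fluorescence polarization of Cy5-labelled ZRE DNA probe bound by purified Zta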
Sequence of Lytic switch protein BZLF1 (P03206 whole entry): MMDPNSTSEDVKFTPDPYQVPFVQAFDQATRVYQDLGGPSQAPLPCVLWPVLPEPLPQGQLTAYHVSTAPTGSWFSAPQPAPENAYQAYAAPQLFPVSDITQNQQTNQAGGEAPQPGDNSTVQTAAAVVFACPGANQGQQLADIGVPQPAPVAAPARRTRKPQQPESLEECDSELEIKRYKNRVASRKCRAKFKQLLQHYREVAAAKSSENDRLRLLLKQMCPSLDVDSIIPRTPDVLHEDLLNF

[16] = biological target: Epstein-Barr nuclear antigen 1 (Epstein-Barr virus (strain B95-8) (HHV-4) (Human herpesvirus 4), UniProt P03211); test: EBNA-1 inhibitors, dose response, biochemical, fluorescence polarization, 1536-well (AID 2381); set-up: species or system human gammaherpesvirus 4;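 note: fluorescence polarization of a Cy5 DNA probe bound by EBNA-1 protein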
Sequence of Epstein-Barr nuclear antigen 1 (P03211 whole entry): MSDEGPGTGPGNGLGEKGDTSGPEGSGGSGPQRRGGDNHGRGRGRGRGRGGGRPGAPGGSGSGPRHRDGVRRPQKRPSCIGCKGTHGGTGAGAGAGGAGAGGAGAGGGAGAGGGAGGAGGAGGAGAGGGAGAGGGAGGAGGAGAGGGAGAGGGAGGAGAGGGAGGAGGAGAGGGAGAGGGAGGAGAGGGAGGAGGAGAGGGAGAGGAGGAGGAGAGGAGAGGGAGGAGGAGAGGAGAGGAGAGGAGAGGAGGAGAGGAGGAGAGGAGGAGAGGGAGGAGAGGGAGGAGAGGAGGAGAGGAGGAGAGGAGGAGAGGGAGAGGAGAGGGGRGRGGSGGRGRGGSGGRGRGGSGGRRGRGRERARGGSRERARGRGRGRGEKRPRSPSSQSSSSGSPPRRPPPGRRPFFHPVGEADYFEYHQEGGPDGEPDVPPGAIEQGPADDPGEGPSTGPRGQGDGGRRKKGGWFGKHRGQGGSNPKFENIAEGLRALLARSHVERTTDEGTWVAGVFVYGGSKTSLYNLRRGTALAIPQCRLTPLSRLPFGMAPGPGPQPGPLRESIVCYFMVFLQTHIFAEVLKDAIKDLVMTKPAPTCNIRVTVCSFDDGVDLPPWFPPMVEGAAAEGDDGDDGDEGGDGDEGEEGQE

Estrogen receptor beta [17] = biological target: T3, Estrogen receptor beta (Homo sapiens, UniProt Q92731);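 note: recombinant ER-beta bound to coactivator SRC1 peptide in presence of estradiol agonist; inhibitors block coactivator peptide binding and lower the FRET signal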
T3 sequence (Q92731 whole entry): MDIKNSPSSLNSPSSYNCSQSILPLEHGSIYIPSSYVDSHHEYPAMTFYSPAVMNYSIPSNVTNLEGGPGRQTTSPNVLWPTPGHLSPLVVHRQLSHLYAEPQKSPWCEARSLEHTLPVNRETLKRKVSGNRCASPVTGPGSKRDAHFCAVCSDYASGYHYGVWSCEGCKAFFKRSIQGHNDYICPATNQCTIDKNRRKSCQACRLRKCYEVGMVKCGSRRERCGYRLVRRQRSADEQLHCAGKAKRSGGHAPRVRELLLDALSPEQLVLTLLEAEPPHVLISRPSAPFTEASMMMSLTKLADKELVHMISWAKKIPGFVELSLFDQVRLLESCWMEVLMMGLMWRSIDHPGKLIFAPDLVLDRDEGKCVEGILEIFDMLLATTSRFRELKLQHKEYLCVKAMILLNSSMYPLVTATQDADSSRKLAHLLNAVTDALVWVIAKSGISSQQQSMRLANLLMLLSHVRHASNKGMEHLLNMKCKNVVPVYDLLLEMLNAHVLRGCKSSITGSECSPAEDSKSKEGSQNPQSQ

Estrogen receptor beta [18] = biological target: T3, Estrogen receptor beta; test: ERβ–SRC-3 coactivator interaction inhibitors, confirmation, orthogonal assay, biochemical, ELISA, streptavidin-HRP readout (AID 1060)
HEK293 [19] = test: cells; details: Homo sapiens
HEK293 [20] = test: cells; details: Homo sapiens; remark: listed apart in the source
Estrogen receptor = biological target: T4, Estrogen receptor (Homo sapiens, UniProt P03372);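 note: potency for inhibiting coactivator peptide recruitment to the receptor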
T4 sequence (P03372 whole entry): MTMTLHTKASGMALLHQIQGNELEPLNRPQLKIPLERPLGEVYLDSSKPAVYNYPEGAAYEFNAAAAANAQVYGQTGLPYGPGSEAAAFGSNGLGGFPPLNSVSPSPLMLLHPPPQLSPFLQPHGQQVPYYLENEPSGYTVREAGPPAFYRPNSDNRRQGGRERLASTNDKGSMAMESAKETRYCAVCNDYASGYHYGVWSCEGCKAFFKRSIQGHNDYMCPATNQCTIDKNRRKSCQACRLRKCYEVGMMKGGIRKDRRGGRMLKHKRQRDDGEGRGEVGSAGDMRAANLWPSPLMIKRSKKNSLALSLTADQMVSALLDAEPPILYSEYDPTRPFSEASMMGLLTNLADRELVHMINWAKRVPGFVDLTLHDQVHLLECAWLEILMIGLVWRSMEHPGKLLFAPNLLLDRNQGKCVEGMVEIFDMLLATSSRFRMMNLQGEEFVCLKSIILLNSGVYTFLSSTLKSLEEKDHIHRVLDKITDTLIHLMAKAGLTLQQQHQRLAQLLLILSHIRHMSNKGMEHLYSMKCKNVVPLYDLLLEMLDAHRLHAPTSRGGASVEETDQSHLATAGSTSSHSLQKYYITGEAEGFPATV

[21] = Luminescent dose response cell-based high throughput screening assay for inhibitors of the Janus kinase 2 mutant JAK2V617F. [Related pubchem assays: 1446 (Primary screen.), 1521 (Confirmation assay.), 1486 (Counter screen.)]; type: functional
[22] = biological target: T5, Rac GTPase-activating protein 1 (Homo sapiens, UniProt Q9H0H5); test: MgcRacGAP GTPase-activating activity inhibitors, confirmation, biochemical, ADP Hunter fluorescence, primary and confirmatory (AID 624330); type: functional
T5 sequence (Q9H0H5 whole entry): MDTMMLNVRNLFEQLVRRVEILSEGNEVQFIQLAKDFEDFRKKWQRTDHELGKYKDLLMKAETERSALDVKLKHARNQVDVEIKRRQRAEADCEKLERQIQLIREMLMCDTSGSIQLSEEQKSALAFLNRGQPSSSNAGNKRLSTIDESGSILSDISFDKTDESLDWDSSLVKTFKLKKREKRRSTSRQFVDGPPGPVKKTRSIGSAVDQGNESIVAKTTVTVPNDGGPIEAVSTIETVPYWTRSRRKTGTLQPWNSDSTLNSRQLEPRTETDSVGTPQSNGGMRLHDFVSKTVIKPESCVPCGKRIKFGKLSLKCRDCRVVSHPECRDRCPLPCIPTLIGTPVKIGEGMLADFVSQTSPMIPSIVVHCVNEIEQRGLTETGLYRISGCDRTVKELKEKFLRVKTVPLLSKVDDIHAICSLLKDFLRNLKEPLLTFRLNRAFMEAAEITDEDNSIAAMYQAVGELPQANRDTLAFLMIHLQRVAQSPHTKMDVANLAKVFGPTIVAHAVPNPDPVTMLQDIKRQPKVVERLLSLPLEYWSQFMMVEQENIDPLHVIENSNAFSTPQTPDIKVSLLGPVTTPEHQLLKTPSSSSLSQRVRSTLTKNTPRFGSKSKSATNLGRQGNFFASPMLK

[23] = biological target: FAD-linked sulfhydryl oxidase ALR (Homo sapiens, UniProt P55789); test: inhibitors of human ALR sulfhydryl oxidase, dose response, biochemical, H2O2 detection, luminescence, cherry-pick (AID 493248)
Sequence of FAD-linked sulfhydryl oxidase ALR (P55789 whole entry): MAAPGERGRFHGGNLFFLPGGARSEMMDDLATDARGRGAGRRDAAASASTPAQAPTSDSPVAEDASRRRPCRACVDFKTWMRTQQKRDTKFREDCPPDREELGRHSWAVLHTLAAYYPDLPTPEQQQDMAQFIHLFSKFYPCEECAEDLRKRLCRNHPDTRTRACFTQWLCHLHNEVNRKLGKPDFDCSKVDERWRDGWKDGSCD

Cytochrome P450 1A2 = biological target: T6, Cytochrome P450 1A2 (Homo sapiens, UniProt P05177);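 note: PubChem cytochrome P450 panel assay, CYP1A2 panel member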
T6 sequence (P05177 whole entry): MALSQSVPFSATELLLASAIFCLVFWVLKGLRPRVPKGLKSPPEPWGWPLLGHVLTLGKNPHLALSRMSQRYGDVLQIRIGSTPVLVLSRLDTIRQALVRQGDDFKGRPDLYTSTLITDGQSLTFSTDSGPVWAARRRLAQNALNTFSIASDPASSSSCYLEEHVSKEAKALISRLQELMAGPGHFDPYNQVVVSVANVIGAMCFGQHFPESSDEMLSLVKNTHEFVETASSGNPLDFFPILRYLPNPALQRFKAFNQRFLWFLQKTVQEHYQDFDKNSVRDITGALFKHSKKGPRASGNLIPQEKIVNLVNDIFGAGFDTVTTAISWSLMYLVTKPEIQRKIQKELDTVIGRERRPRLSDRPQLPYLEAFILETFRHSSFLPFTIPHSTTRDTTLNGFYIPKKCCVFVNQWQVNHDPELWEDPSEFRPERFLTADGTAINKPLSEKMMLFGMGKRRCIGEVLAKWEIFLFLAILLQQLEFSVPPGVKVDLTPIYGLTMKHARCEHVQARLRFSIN

[24] = control 3'UTR Renilla luciferase suppression, dose response, counter-screen for Shn3 inhibitor project, cell-based, Clone20-Shn3RL, cherry-picked (AID 624133); type: functional
[25] = Shn3 3'UTR reporter inhibitors, dose response, cell-based, Clone20 osteoblasts, firefly luciferase, cherry-picked (AID 624132); type: functional;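 note: firefly luciferase luminescence from reporter carrying the Shn3 3'UTR in osteoblasts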
[26] = Vero cell cytotoxicity, dose response, cytotoxicity control for Vif-APOBEC3G degradation inhibitor project, Vero cells (AID 1117358); type: functional; details: Human immunodeficiency virus 1, Vero
[27] = ZM109 Env clade C HIV-1 fusion inhibitors, dose response, HeLa effector, CEM target cells, luciferase, cherry-pick (AID 652058); type: functional, cell-based
Cytochrome P450 2D6 = Cytochrome P450 2D6 (Homo sapiens, UniProt P10635);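 note: CYP2D6 member of a cytochrome P450 panel assay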
Sequence of Cytochrome P450 2D6 (P10635 whole entry, the tested form may be a part): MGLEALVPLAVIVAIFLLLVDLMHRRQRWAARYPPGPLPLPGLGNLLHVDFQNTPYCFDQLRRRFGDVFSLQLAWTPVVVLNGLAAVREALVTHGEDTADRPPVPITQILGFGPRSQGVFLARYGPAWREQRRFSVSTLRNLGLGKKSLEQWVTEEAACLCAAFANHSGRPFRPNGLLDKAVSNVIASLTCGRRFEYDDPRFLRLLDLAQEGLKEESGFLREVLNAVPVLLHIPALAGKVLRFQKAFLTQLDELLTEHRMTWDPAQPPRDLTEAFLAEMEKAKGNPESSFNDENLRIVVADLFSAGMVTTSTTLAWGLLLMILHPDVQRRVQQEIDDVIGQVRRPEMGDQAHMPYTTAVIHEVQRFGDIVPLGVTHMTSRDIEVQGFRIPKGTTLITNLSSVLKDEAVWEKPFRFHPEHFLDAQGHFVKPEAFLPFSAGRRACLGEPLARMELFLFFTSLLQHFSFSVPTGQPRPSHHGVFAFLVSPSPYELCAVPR

[28] = CEM21 lymphoblast cell cytotoxicity, dose response, cytotoxicity control for viral fusion inhibitor project, CellTiter-Glo luminescence, cherry-picked (AID 652042); type: functional, cell-based;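 note: potency for signal decrease meaning cytotoxicity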
[29] = inhibitors of clade B AD8 Env fusion, dose response, cell-based, cherry-pick (AID 652062); type: functional;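 note: luciferase signal from cell-cell fusion driven by HIV-1 clade B AD8 Env; potency is for inhibitors of fusion seen as a drop in luminescence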
[30] = inhibitors of HIV Env-driven cell fusion, dose response, cherry-pick (AID 652057); type: functional, cell-based
[31] = off-target signal loss in HeLa-CEM21 co-culture – HeLa F-luc CTL cells, cherry-picked, counter-screen for HIV-1 Env fusion inhibitor project, dose response (AID 652040); type: functional, cell-based;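 note: potency for signal decrease marking cytotoxic or nonspecific inhibition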
Cytochrome P450 2C9 = Cytochrome P450 2C9 (Homo sapiens, UniProt P11712)
Sequence of Cytochrome P450 2C9 (P11712 whole entry): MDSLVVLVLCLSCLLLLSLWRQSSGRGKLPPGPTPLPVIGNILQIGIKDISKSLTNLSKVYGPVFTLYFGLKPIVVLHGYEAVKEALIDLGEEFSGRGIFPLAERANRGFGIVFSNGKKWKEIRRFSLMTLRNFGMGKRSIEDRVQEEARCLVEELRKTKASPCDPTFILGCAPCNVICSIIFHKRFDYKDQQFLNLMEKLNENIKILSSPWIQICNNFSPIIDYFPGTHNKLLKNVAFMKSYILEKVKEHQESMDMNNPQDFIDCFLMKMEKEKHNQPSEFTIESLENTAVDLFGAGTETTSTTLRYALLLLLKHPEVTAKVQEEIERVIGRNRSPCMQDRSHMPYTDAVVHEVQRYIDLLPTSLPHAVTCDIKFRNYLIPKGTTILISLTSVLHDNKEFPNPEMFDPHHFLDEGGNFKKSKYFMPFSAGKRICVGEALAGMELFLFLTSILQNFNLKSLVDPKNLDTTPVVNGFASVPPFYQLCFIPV

[32] = HepG2 cell cytotoxicity, dose response, cytotoxicity control for Shn3 inhibitor project, CellTiter-Glo, cherry-picked (AID 624134); type: functional, cell-based

Sequence of 5-hydroxytryptamine receptor 1A (P08908 whole entry): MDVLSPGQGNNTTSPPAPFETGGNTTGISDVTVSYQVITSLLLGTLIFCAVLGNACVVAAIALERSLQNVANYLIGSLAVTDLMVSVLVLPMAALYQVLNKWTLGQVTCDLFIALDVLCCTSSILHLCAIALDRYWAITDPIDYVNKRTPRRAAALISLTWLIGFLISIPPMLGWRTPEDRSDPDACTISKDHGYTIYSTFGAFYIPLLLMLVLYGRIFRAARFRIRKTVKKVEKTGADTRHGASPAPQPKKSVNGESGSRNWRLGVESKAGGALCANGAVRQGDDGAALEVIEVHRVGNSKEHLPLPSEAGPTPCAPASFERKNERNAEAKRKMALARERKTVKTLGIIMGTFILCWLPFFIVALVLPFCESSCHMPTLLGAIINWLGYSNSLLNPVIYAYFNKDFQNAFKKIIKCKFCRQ

CN1CC=C(c2c[nH]c3ccccc23)CC1
EC50 [1]: 12 µM (not active)

Clc1ncccc1-c1nnn(-c2ccccc2)n1
IC50 (Bcl-2-related protein A1 [2]): > 100 µM (not active)
IC50 (Bcl-2-related protein A1 [3]): > 100 µM (not active)

COc1cc(/C=C/[N+](=O)[O-])ccc1O
EC50 [4]: 8.18 µM (active)
EC50 (BJ [5]): 15.5 µM (active)
EC50 (BJ [6]): > 75 µM (inconclusive)
IC50 [7]: 4.84 µM (active)
EC50 [8]: 10.3 µM (active)
EC50 (BJ [9]): 4.46 µM (active)
EC50 (BJ [10]): 10.6 µM (inconclusive)
IC50 (Galanin receptor type 2): > 4.6 µM (not active)

O=C(NC(=S)Nc1ccc(N2CCCCC2)c(Cl)c1)c1cccs1
CC50 [11]: 17.3 µM (active)
AC50 [12]: 6.16 µM (active)
CC50 [13]: > 40 µM (active)
EC50 [14]: 0.2 µM (active)

COc1ccc(NC(=O)NCc2ccc3c(c2)OCO3)c(OC)c1
IC50 [15]: > 111 µM (not active)
IC50 [16]: 18.3 µM (not active)

O=C(COC(=O)C1CC2C=CC1C2)NCc1ccco1 (stereo not drawn)
IC50 (Estrogen receptor beta [17]): 7.15 µM (active)
IC50 (Estrogen receptor beta [18]): > 109 µM (not active)

c1ccc(-n2nnc(-c3cnc4ccccc4c3)n2)cc1
IC50 (Bcl-2-related protein A1 [2]): > 100 µM (not active)
IC50 (Bcl-2-related protein A1 [3]): > 100 µM (not active)

Cc1ccc(S(=O)(=O)NCc2ccncc2)cc1
IC50 (Galanin receptor type 2): > 42 µM (not active)

O=C(Nc1ccccc1[N+](=O)[O-])C1=C(O)CCn2c1nc1ccccc12
EC50 (HEK293 [19]): > 59.7 µM (inactive)
EC50 (HEK293 [20]): > 59.7 µM (inactive)
IC50 (Estrogen receptor): 18.6 µM (active)

CC1CCCCC1NC(=S)NC(=O)c1sc2ccccc2c1Cl (stereo not drawn)
EC50 [14]: 4.87 µM (active)

CN(c1ccccc1)S(=O)(=O)c1cccc(C(=O)NCCc2ccc(O)c(O)c2)c1
IC50 [21]: 7.29 µM (active)
IC50 [22]: 69.2 µM (active)
AC50 [23]: 4.37 µM (active)

Nc1nc(CCl)nc(N(c2ccccc2)c2ccccc2)n1
EC50 (BJ [5]): 2.65 µM (active)
EC50 (BJ [6]): 12.1 µM (inconclusive)
IC50 [21]: 0.721 µM (active)
EC50 [8]: 0.674 µM (active)
EC50 (BJ [9]): 0.229 µM (active)
EC50 (BJ [10]): 0.652 µM (inconclusive)

Nc1nc(Cl)cc(N2CCC(c3cc(-c4ccc(Cl)cc4Cl)[nH]n3)CC2)n1
AC50 (Cytochrome P450 1A2): 6.31 µM (inconclusive)
AC50 [24]: 5.61 µM (active)
AC50 [25]: 4.94 µM (active)
CC50 [26]: > 40 µM (active)
AC50 [27]: 0.394 µM (active)
AC50 (Cytochrome P450 2D6): 12.6 µM (inconclusive)
AC50 [28]: 36.1 µM (active)
AC50 [29]: 16.6 µM (active)
AC50 [30]: 18.5 µM (active)
AC50 [31]: > 70 µM (inactive)
AC50 (Cytochrome P450 2C9): 22.4 µM (inconclusive)
CC50 [13]: > 40 µM (active)
AC50 [32]: 62 µM (active)
